According to ChEMBL document CHEMBL4270553, “Synthesis and anticancer activity of new dihydropyrimidinone derivatives” (Eur J Med Chem, 2018):

System: ACHN
Assay: Antiproliferative activity against human ACHN cells assessed as growth inhibition at 10 uM after 48 hrs by sulforhodamine B assay relative to control
Type: functional
Details: read-out: GI

SMILES	inhibition of growth at 10 µM
CCOC(=O)C1=C(CSC(=S)N2CCCCC2)N(C)C(=O)NC1c1ccccc1 (centres undefined)	15%
CCOC(=O)C1=C(CSC(=S)N2CCN(c3ccccc3)CC2)N(C)C(=O)NC1c1ccccc1 (centres undefined)	11%
CCOC(=O)C1=C(CN(C2CCCCC2)C2CCCCC2)N(C)C(=O)NC1c1ccccc1 (centres undefined)	13%

System: SF-295
Assay: Antiproliferative activity against human SF295 cells assessed as growth inhibition at 10 uM after 48 hrs by sulforhodamine B assay relative to control
Type: functional
Details: SF-295, 48 h, read-out: GI

SMILES	inhibition of growth at 10 µM
CCOC(=O)C1=C(CSC(=S)N2CCCCC2)N(C)C(=O)NC1c1ccccc1 (centres undefined)	13%
CCOC(=O)C1=C(CSC(=S)N2CCN(c3ccccc3)CC2)N(C)C(=O)NC1c1ccccc1 (centres undefined)	17%
CCOC(=O)C1=C(CN(C2CCCCC2)C2CCCCC2)N(C)C(=O)NC1c1ccccc1 (centres undefined)	19%

System: NCI/ADR-RES
Assay: Antiproliferative activity against human NCI/ADR-RES cells assessed as growth inhibition at 10 uM after 48 hrs by sulforhodamine B assay relative to control
Type: functional
Details: read-out: GI

SMILES	inhibition of growth at 10 µM
CCOC(=O)C1=C(CSC(=S)N2CCCCC2)N(C)C(=O)NC1c1ccccc1 (centres undefined)	12%
CCOC(=O)C1=C(CSC(=S)N2CCN(c3ccccc3)CC2)N(C)C(=O)NC1c1ccccc1 (centres undefined)	5%
CCOC(=O)C1=C(CN(C2CCCCC2)C2CCCCC2)N(C)C(=O)NC1c1ccccc1 (centres undefined)	7%

System: MOLT-4
Assay: Antiproliferative activity against human MOLT4 cells assessed as growth inhibition at 10 uM after 48 hrs by sulforhodamine B assay relative to control
Type: functional
Details: MOLT-4, 48 h, read-out: GI

SMILES	inhibition of growth at 10 µM
CCOC(=O)C1=C(CSC(=S)N2CCCCC2)N(C)C(=O)NC1c1ccccc1 (centres undefined)	30%
CCOC(=O)C1=C(CSC(=S)N2CCN(c3ccccc3)CC2)N(C)C(=O)NC1c1ccccc1 (centres undefined)	24%
CCOC(=O)C1=C(CN(C2CCCCC2)C2CCCCC2)N(C)C(=O)NC1c1ccccc1 (centres undefined)	35%

System: LOX IMVI
Assay: Antiproliferative activity against human LOXIMVI cells assessed as growth inhibition at 10 uM after 48 hrs by sulforhodamine B assay relative to control
Type: functional
Details: read-out: GI

SMILES	inhibition of growth at 10 µM
CCOC(=O)C1=C(CSC(=S)N2CCCCC2)N(C)C(=O)NC1c1ccccc1 (centres undefined)	11%
CCOC(=O)C1=C(CSC(=S)N2CCN(c3ccccc3)CC2)N(C)C(=O)NC1c1ccccc1 (centres undefined)	13%
CCOC(=O)C1=C(CN(C2CCCCC2)C2CCCCC2)N(C)C(=O)NC1c1ccccc1 (centres undefined)	13%

System: T47D
Assay: Antiproliferative activity against human T47D cells assessed as growth inhibition at 10 uM after 48 hrs by sulforhodamine B assay relative to control
Type: functional
Details: read-out: GI

SMILES	inhibition of growth at 10 µM
CCOC(=O)C1=C(CSC(=S)N2CCCCC2)N(C)C(=O)NC1c1ccccc1 (centres undefined)	45%
CCOC(=O)C1=C(CSC(=S)N2CCN(c3ccccc3)CC2)N(C)C(=O)NC1c1ccccc1 (centres undefined)	37%
CCOC(=O)C1=C(CN(C2CCCCC2)C2CCCCC2)N(C)C(=O)NC1c1ccccc1 (centres undefined)	46%

System: PC-3
Assay: Antiproliferative activity against human PC3 cells assessed as growth inhibition at 10 uM after 48 hrs by sulforhodamine B assay relative to control
Type: functional
Details: PC-3, 48 h, read-out: GI

SMILES	inhibition of growth at 10 µM
CCOC(=O)C1=C(CSC(=S)N2CCCCC2)N(C)C(=O)NC1c1ccccc1 (centres undefined)	27%
CCOC(=O)C1=C(CSC(=S)N2CCN(c3ccccc3)CC2)N(C)C(=O)NC1c1ccccc1 (centres undefined)	41%
CCOC(=O)C1=C(CN(C2CCCCC2)C2CCCCC2)N(C)C(=O)NC1c1ccccc1 (centres undefined)	58%

System: HCT-15
Assay: Antiproliferative activity against human HCT15 cells assessed as growth inhibition at 10 uM after 48 hrs by sulforhodamine B assay relative to control
Type: functional
Details: HCT-15, 48 h, read-out: GI

SMILES	inhibition of growth at 10 µM
CCOC(=O)C1=C(CSC(=S)N2CCCCC2)N(C)C(=O)NC1c1ccccc1 (centres undefined)	35%
CCOC(=O)C1=C(CSC(=S)N2CCN(c3ccccc3)CC2)N(C)C(=O)NC1c1ccccc1 (centres undefined)	48%
CCOC(=O)C1=C(CN(C2CCCCC2)C2CCCCC2)N(C)C(=O)NC1c1ccccc1 (centres undefined)	11%

System: UACC-62
Assay: Antiproliferative activity against human UACC62 cells assessed as growth inhibition at 10 uM after 48 hrs by sulforhodamine B assay relative to control
Type: functional
Details: UACC-62, 48 h, read-out: GI

SMILES	inhibition of growth at 10 µM
CCOC(=O)C1=C(CSC(=S)N2CCCCC2)N(C)C(=O)NC1c1ccccc1 (centres undefined)	28%
CCOC(=O)C1=C(CSC(=S)N2CCN(c3ccccc3)CC2)N(C)C(=O)NC1c1ccccc1 (centres undefined)	24%
CCOC(=O)C1=C(CN(C2CCCCC2)C2CCCCC2)N(C)C(=O)NC1c1ccccc1 (centres undefined)	23%

System: NCI-H460
Assay: Antiproliferative activity against human NCI-H460 cells assessed as growth inhibition at 10 uM after 48 hrs by sulforhodamine B assay relative to control
Type: functional
Details: NCI-H460, 48 h, read-out: GI

SMILES	inhibition of growth at 10 µM
CCOC(=O)C1=C(CSC(=S)N2CCCCC2)N(C)C(=O)NC1c1ccccc1 (centres undefined)	10%
CCOC(=O)C1=C(CSC(=S)N2CCN(c3ccccc3)CC2)N(C)C(=O)NC1c1ccccc1 (centres undefined)	12%
CCOC(=O)C1=C(CN(C2CCCCC2)C2CCCCC2)N(C)C(=O)NC1c1ccccc1 (centres undefined)	13%

System: MCF7
Assay: Antiproliferative activity against human MCF7 cells assessed as growth inhibition at 10 uM after 48 hrs by sulforhodamine B assay relative to control
Type: functional
Details: MCF7, 48 h, read-out: GI

SMILES	inhibition of growth at 10 µM
CCOC(=O)C1=C(CSC(=S)N2CCCCC2)N(C)C(=O)NC1c1ccccc1 (centres undefined)	12%
CCOC(=O)C1=C(CSC(=S)N2CCN(c3ccccc3)CC2)N(C)C(=O)NC1c1ccccc1 (centres undefined)	15%
CCOC(=O)C1=C(CN(C2CCCCC2)C2CCCCC2)N(C)C(=O)NC1c1ccccc1 (centres undefined)	36%

System: HL-60(TB)
Assay: Antiproliferative activity against human HL-60(TB) cells assessed as growth inhibition at 10 uM after 48 hrs by sulforhodamine B assay relative to control
Type: functional
Details: HL-60, 48 h, read-out: GI

SMILES	inhibition of growth at 10 µM
CCOC(=O)C1=C(CSC(=S)N2CCCCC2)N(C)C(=O)NC1c1ccccc1 (centres undefined)	33%
CCOC(=O)C1=C(CSC(=S)N2CCN(c3ccccc3)CC2)N(C)C(=O)NC1c1ccccc1 (centres undefined)	20%
CCOC(=O)C1=C(CN(C2CCCCC2)C2CCCCC2)N(C)C(=O)NC1c1ccccc1 (centres undefined)	37%

System: OVCAR-4
Assay: Antiproliferative activity against human OVCAR4 cells assessed as growth inhibition at 10 uM after 48 hrs by sulforhodamine B assay relative to control
Type: functional
Details: OVCAR-4, 48 h, read-out: GI

SMILES	inhibition of growth at 10 µM
CCOC(=O)C1=C(CSC(=S)N2CCCCC2)N(C)C(=O)NC1c1ccccc1 (centres undefined)	16%
CCOC(=O)C1=C(CSC(=S)N2CCN(c3ccccc3)CC2)N(C)C(=O)NC1c1ccccc1 (centres undefined)	15%
CCOC(=O)C1=C(CN(C2CCCCC2)C2CCCCC2)N(C)C(=O)NC1c1ccccc1 (centres undefined)	26%

System: NCI-H322M
Assay: Antiproliferative activity against human NCI-H322M cells assessed as growth inhibition at 10 uM after 48 hrs by sulforhodamine B assay relative to control
Type: functional
Details: read-out: GI

SMILES	inhibition of growth at 10 µM
CCOC(=O)C1=C(CSC(=S)N2CCCCC2)N(C)C(=O)NC1c1ccccc1 (centres undefined)	15%
CCOC(=O)C1=C(CSC(=S)N2CCN(c3ccccc3)CC2)N(C)C(=O)NC1c1ccccc1 (centres undefined)	15%
CCOC(=O)C1=C(CN(C2CCCCC2)C2CCCCC2)N(C)C(=O)NC1c1ccccc1 (centres undefined)	5%

System: A549
Assay: Antiproliferative activity against human A549/ATCC cells assessed as growth inhibition at 10 uM after 48 hrs by sulforhodamine B assay relative to control
Type: functional
Details: A549, 48 h, read-out: GI

SMILES	inhibition of growth at 10 µM
CCOC(=O)C1=C(CSC(=S)N2CCCCC2)N(C)C(=O)NC1c1ccccc1 (centres undefined)	29%
CCOC(=O)C1=C(CSC(=S)N2CCN(c3ccccc3)CC2)N(C)C(=O)NC1c1ccccc1 (centres undefined)	27%
CCOC(=O)C1=C(CN(C2CCCCC2)C2CCCCC2)N(C)C(=O)NC1c1ccccc1 (centres undefined)	33%

System: UO-31
Assay: Antiproliferative activity against human UO31 cells assessed as growth inhibition at 10 uM after 48 hrs by sulforhodamine B assay relative to control
Type: functional
Details: UO-31, 48 h, read-out: GI

SMILES	inhibition of growth at 10 µM
CCOC(=O)C1=C(CSC(=S)N2CCCCC2)N(C)C(=O)NC1c1ccccc1 (centres undefined)	29%
CCOC(=O)C1=C(CSC(=S)N2CCN(c3ccccc3)CC2)N(C)C(=O)NC1c1ccccc1 (centres undefined)	37%
CCOC(=O)C1=C(CN(C2CCCCC2)C2CCCCC2)N(C)C(=O)NC1c1ccccc1 (centres undefined)	27%

System: CAKI-1
Assay: Antiproliferative activity against human Caki1 cells assessed as growth inhibition at 10 uM after 48 hrs by sulforhodamine B assay relative to control
Type: functional
Details: CAKI-1, 48 h, read-out: GI

SMILES	inhibition of growth at 10 µM
CCOC(=O)C1=C(CSC(=S)N2CCCCC2)N(C)C(=O)NC1c1ccccc1 (centres undefined)	17%
CCOC(=O)C1=C(CSC(=S)N2CCN(c3ccccc3)CC2)N(C)C(=O)NC1c1ccccc1 (centres undefined)	15%
CCOC(=O)C1=C(CN(C2CCCCC2)C2CCCCC2)N(C)C(=O)NC1c1ccccc1 (centres undefined)	30%

System: MDA-MB-468
Assay: Antiproliferative activity against human MDA-MB-468 cells assessed as growth inhibition at 10 uM after 48 hrs by sulforhodamine B assay relative to control
Type: functional
Details: MDA-MB-468, 48 h, read-out: GI

SMILES	inhibition of growth at 10 µM
CCOC(=O)C1=C(CSC(=S)N2CCCCC2)N(C)C(=O)NC1c1ccccc1 (centres undefined)	20%
CCOC(=O)C1=C(CSC(=S)N2CCN(c3ccccc3)CC2)N(C)C(=O)NC1c1ccccc1 (centres undefined)	14%
CCOC(=O)C1=C(CN(C2CCCCC2)C2CCCCC2)N(C)C(=O)NC1c1ccccc1 (centres undefined)	21%

System: SR
Assay: Antiproliferative activity against human SR cells assessed as growth inhibition at 10 uM after 48 hrs by sulforhodamine B assay relative to control
Type: functional
Details: read-out: GI

SMILES	inhibition of growth at 10 µM
CCOC(=O)C1=C(CSC(=S)N2CCCCC2)N(C)C(=O)NC1c1ccccc1 (centres undefined)	27%
CCOC(=O)C1=C(CSC(=S)N2CCN(c3ccccc3)CC2)N(C)C(=O)NC1c1ccccc1 (centres undefined)	44%
CCOC(=O)C1=C(CN(C2CCCCC2)C2CCCCC2)N(C)C(=O)NC1c1ccccc1 (centres undefined)	20%

System: SK-MEL-5
Assay: Antiproliferative activity against human SK-MEL-5 cells assessed as growth inhibition at 10 uM after 48 hrs by sulforhodamine B assay relative to control
Type: functional
Details: SK-MEL-5, 48 h, read-out: GI

SMILES	inhibition of growth at 10 µM
CCOC(=O)C1=C(CSC(=S)N2CCCCC2)N(C)C(=O)NC1c1ccccc1 (centres undefined)	25%
CCOC(=O)C1=C(CSC(=S)N2CCN(c3ccccc3)CC2)N(C)C(=O)NC1c1ccccc1 (centres undefined)	23%
CCOC(=O)C1=C(CN(C2CCCCC2)C2CCCCC2)N(C)C(=O)NC1c1ccccc1 (centres undefined)	19%

System: K562
Assay: Antiproliferative activity against human K562 cells assessed as growth inhibition at 10 uM after 48 hrs by sulforhodamine B assay relative to control
Type: functional
Details: K562, 48 h, read-out: GI

SMILES	inhibition of growth at 10 µM
CCOC(=O)C1=C(CSC(=S)N2CCCCC2)N(C)C(=O)NC1c1ccccc1 (centres undefined)	20%
CCOC(=O)C1=C(CSC(=S)N2CCN(c3ccccc3)CC2)N(C)C(=O)NC1c1ccccc1 (centres undefined)	22%
CCOC(=O)C1=C(CN(C2CCCCC2)C2CCCCC2)N(C)C(=O)NC1c1ccccc1 (centres undefined)	31%

System: NCI-H522
Assay: Antiproliferative activity against human NCI-H522 cells assessed as growth inhibition at 10 uM after 48 hrs by sulforhodamine B assay relative to control
Type: functional
Details: NCI-H522, 48 h, read-out: GI

SMILES	inhibition of growth at 10 µM
CCOC(=O)C1=C(CSC(=S)N2CCCCC2)N(C)C(=O)NC1c1ccccc1 (centres undefined)	25%
CCOC(=O)C1=C(CSC(=S)N2CCN(c3ccccc3)CC2)N(C)C(=O)NC1c1ccccc1 (centres undefined)	28%
CCOC(=O)C1=C(CN(C2CCCCC2)C2CCCCC2)N(C)C(=O)NC1c1ccccc1 (centres undefined)	18%

System: HCT-116
Assay: Antiproliferative activity against human HCT116 cells assessed as growth inhibition at 10 uM after 48 hrs by sulforhodamine B assay relative to control
Type: functional
Details: HCT-116, 48 h, read-out: GI

SMILES	inhibition of growth at 10 µM
CCOC(=O)C1=C(CSC(=S)N2CCCCC2)N(C)C(=O)NC1c1ccccc1 (centres undefined)	34%
CCOC(=O)C1=C(CSC(=S)N2CCN(c3ccccc3)CC2)N(C)C(=O)NC1c1ccccc1 (centres undefined)	41%
CCOC(=O)C1=C(CN(C2CCCCC2)C2CCCCC2)N(C)C(=O)NC1c1ccccc1 (centres undefined)	33%
